Data: patent US10281476B2, “Methods to identify modulators of RyR calcium channels” (REGENTS OF THE UNIVERSITY OF MINNESOTA, priority 2013, dated 2019)
Entries after “also recorded” stand apart in the source; their conditions may differ. Where no end group is shown, it is not given here.

Assays:
RyR2 [1] = target: T1, RyR2 (Rattus norvegicus, UniProt B0LPN4); assay: HF647-DPc10 wash-in kinetics by FRET from F-FKBP (donor quench) in permeabilized myocytes; format: binding; set-up: These fluorescent proteins were added to saponin-permeabilized myocytes with or without pre-equilibration with saturating DPc10 concentration; endogenous in cells; host or cells: saponin-permeabilized rat ventricular myocytes; conditions: for effect on rate of HF647-DPc10 binding (τwash-in): H2O2 50 μmol/L pre-incubation, dantrolene 1 μmol/L in H2O2-treated myocytes
Method: The FRET pair we used in this consisted of ALEXA FLUOR™ 488 (donor) covalently attached to FKBP12.6 (F-FKBP) and HiLyte Fluor™647 (acceptor) covalently attached to DPc10 (F-DPc10).^8 To detect F-DPc10 specifically bound to RyR2, we measured donor fluorescence intensities through a 500-530 nm bandpass filter before and after equilibration with acceptor (donor quenching method). The FRET efficiency (E) was calculated according to: E=1-FDA/FD, Where FD and FDA are the fluorescence intensities of the donor-only and donor-plus-acceptor samples, respectively (Oda et al., Circ Res. 2013;112:487-497). Statistics
Next we tested whether RyR2 oxidation would increase HF647-DPc10 access. Here, we used FRET between F-FKBP as a donor and HF647-DPc10 as an acceptor, to detect DPc10 that specifically binds at RyR2 (Oda et al., Circ Res. 2013; 112:487-497).
Target sequence in this assay (B0LPN4 whole entry): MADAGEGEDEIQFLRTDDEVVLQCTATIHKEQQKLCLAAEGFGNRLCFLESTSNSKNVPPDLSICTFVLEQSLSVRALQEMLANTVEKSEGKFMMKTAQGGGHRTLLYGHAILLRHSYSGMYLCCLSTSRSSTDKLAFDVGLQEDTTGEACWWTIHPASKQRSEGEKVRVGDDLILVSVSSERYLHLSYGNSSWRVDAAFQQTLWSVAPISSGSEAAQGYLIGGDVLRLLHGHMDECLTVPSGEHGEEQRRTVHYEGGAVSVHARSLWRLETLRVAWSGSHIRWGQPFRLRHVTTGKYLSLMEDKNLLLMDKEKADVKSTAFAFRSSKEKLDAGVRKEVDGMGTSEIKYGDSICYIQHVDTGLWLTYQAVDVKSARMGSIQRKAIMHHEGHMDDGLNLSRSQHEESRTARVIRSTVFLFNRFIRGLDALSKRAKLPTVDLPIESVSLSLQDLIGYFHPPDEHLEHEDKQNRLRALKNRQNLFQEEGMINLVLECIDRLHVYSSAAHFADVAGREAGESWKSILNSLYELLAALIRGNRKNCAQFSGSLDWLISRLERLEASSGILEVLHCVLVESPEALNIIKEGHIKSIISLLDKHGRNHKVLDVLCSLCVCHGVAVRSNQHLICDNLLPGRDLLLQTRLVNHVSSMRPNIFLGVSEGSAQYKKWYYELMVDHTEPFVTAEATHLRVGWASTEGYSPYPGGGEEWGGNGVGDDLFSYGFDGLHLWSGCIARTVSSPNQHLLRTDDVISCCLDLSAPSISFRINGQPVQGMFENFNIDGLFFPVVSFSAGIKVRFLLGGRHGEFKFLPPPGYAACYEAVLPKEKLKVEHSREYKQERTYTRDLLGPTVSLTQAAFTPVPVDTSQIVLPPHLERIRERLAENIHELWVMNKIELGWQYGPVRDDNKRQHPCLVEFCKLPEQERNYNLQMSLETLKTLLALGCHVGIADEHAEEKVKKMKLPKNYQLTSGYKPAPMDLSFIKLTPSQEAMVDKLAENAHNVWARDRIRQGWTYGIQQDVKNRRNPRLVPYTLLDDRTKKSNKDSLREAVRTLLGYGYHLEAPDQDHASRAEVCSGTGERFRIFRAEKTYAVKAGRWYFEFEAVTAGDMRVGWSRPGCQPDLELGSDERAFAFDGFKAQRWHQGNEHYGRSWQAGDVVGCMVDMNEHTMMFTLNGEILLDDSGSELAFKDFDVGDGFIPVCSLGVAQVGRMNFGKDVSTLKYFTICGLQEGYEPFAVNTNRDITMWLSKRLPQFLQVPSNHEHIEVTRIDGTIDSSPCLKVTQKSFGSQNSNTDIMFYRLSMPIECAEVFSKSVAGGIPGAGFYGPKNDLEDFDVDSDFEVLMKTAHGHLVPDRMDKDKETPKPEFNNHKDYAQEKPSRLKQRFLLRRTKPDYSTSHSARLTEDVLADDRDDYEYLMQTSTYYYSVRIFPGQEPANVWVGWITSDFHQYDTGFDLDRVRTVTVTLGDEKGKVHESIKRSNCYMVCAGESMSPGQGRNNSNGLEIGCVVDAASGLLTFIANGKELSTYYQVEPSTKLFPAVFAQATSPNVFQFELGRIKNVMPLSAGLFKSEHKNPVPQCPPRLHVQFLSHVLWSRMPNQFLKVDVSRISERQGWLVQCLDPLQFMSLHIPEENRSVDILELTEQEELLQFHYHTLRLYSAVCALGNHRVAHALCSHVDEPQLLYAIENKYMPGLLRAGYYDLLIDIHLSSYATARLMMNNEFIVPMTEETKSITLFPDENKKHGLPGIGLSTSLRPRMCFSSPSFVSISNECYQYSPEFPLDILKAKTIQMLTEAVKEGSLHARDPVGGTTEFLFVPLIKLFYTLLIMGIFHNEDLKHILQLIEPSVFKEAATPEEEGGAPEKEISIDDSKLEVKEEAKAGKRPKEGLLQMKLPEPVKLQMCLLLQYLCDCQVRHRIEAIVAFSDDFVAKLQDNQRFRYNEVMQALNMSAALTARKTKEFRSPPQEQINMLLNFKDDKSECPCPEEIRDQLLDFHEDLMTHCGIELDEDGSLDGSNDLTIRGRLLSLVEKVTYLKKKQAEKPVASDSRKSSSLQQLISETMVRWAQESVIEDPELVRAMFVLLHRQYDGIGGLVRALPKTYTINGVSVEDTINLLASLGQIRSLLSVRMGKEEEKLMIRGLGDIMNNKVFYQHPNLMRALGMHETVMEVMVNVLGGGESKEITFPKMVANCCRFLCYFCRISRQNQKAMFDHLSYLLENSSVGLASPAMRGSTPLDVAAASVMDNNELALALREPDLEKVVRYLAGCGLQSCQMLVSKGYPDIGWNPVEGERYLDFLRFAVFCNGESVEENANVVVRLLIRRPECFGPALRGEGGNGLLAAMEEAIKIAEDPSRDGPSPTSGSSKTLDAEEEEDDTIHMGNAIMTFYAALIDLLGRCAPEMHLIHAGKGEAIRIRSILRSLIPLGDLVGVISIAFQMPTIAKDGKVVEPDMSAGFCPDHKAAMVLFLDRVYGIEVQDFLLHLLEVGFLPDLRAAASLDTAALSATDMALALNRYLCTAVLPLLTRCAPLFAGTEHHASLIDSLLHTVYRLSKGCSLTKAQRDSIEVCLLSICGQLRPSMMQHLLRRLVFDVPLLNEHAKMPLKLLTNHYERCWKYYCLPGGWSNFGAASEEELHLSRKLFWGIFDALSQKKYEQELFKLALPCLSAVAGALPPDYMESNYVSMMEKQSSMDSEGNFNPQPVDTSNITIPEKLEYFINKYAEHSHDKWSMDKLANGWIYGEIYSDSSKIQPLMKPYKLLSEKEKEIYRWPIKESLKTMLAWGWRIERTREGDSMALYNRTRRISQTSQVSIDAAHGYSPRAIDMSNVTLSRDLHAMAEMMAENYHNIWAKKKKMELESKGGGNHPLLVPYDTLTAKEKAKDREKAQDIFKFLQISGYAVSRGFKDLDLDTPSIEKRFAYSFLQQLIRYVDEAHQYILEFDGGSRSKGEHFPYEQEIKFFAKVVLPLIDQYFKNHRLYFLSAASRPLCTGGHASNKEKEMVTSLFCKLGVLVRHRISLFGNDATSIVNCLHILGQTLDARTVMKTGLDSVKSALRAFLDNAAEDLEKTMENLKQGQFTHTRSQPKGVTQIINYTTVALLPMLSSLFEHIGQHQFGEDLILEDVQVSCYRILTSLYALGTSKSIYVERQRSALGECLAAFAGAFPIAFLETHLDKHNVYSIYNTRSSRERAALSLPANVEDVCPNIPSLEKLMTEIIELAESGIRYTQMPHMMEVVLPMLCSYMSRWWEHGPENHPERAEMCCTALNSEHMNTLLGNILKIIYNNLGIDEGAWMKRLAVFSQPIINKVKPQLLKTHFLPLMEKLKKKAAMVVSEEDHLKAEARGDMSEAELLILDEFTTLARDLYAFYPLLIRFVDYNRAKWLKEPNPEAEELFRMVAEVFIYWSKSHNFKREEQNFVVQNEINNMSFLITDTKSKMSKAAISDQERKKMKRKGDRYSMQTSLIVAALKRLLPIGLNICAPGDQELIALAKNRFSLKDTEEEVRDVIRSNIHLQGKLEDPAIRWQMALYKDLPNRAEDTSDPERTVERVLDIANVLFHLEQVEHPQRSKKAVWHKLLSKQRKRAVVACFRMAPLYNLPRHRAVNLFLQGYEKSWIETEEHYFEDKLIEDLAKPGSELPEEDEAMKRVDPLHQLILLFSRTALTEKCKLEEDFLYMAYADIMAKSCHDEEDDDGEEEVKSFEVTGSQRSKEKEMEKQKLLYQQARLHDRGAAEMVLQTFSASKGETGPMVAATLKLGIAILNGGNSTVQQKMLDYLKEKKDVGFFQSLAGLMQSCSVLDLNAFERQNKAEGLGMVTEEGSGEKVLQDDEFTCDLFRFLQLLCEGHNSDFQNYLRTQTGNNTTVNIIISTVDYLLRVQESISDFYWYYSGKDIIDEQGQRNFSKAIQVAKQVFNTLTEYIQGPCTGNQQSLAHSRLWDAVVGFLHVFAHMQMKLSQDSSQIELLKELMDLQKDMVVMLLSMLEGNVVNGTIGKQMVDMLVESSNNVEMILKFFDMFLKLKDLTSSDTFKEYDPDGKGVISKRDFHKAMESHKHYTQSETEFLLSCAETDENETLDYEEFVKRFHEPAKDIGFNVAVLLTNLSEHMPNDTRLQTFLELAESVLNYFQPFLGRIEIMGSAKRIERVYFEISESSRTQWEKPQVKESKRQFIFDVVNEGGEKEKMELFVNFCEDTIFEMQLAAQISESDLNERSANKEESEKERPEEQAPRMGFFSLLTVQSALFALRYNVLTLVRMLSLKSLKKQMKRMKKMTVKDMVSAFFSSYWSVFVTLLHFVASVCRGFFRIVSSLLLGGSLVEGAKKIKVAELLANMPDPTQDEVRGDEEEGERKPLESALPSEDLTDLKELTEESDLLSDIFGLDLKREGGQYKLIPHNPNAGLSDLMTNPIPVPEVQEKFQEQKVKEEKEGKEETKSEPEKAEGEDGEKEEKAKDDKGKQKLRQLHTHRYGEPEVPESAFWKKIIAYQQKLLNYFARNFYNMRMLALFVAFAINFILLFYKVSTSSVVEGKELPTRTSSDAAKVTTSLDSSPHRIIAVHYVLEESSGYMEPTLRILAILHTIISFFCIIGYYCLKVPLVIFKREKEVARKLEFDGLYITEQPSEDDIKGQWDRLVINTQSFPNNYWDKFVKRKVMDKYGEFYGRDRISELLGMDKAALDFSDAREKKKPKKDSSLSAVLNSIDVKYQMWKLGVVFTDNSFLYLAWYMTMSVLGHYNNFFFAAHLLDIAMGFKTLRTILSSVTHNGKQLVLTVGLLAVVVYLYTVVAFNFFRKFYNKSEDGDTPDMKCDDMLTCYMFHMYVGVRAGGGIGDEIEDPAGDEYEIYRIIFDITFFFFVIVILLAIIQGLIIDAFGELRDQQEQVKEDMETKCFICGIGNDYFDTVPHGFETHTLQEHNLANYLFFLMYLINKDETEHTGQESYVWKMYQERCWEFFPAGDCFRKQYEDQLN
Target sequence in this assay (P68106 with tags, fused parts or gaps T15C/C23A/C77I partner): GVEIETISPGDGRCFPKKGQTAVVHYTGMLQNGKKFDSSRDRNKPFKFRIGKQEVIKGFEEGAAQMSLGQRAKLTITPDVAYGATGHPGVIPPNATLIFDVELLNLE

RyR2 [2] = target: T1, RyR2; assay: Fluorescent CaM binding at the Z-line and at RyR2 (FKBP12.6-CaM FRET) in permeabilized myocytes; set-up: These fluorescent proteins were added to saponin-permeabilized myocytes with or without pre-equilibration with saturating DPc10 concentration; endogenous in cells; host or cells: saponin-permeabilized rat ventricular myocytes
Method: These fluorescent proteins were added to saponin-permeabilized myocytes with or without pre-equilibration with saturating DPc10 concentration. […] We also did this with high [CaM] (500 nmol/L) that saturates RyR2 with CaM under control conditions (without DPc10; FIG. 17C). […] To test whether DPc10 and CaM bind at the same or nearby RyR2 sites, we measured FRET between CaM and DPc10.
CaM also binds to RyR2 and reduces RyR2 open probability, and works as a regulatory protein for RyR2 channel gating (Yamaguchi et al., J Biol Chem. 2003; 278:23480-23486; Balshaw et al., J Biol Chem. 2001; 276:20144-20153; Yang et al., Circ Res. 2014; 114:295-306); Yamaguchi et al., J Clin Invest. 2007; 117:1344-1353). We measured the effect of H2O2 on CaM-RyR2 binding affinity using F-CaM as in our previous reports (Yang et al., Circ Res. 2014; 114:295-306; Cornea et al., Proc Natl Acad Sci USA. 2009; 106:6128-6133).
(50 μmol/L) in media containing 50 μmol/L H2O2 (the same concentration used in myocyte pre-incubation experiments). This allowed F-CaM oxidation (and call this F-CaM^Ox). This was then diluted 2500-fold to 20 nmol/L F-CaM^Ox and no H2O2 was present in the myocyte bath.
As a further test of whether RyR2 oxidation alone inhibits subsequent CaM affinity, we removed H2O2 from the myocytes by repeated washing, prior to the addition of F-CaM.
Target sequence in this assay (B0LPN4 whole entry): as the sequence (B0LPN4 whole entry) above

intact cardiac myocytes = assay: Spontaneous Ca2+ waves (SCW) in intact cardiac myocytes; format: cell-based, rat
Method: (§1) Intact cardiomyocytes were loaded with Fluo-4 AM (5 μmol/L, Molecular Probes) for 15 min in NT solution (in mM): NaCl 140, KCl 4, MgCl2 1, CaCl2 2, glucose 10, HEPES 5, pH 7.4. Fluo-4 AM was excited at 488 nm and emission was recorded using a 500-530 nm bandpass filter. Ca^2+sparks were recorded after field stimulation at 1 Hz, and caffeine (10mmol/L) was rapidly perfused for assessing the SR Ca^2+content. Both Ca^2+sparks and SR Ca^2+content were recorded by using a laser scanning confocal microscope (RADIANCE2000™ MP, Bio-Rad, UK). Data were analyzed using SparkMaster, an automated analysis program that allows rapid and reliable spark analysis (Picht et al., J. Am J Physiol Cell Physiol. 2007;293:C1073-C1081). Spontaneous Ca^2+waves were recorded using a BZ9000 fluorescence digital microscope (Keyence, Japan), after 10 sec from field electric stimulation at 1,2,3,4 and 5 Hz, as described previously (Fukuda et al., Biochem Biophys Res Commun. 2014;448:1-7).

[3] = test system: rat intact cardiomyocytes; assay: Ca2+ transients in intact cardiomyocytes; format: cell-based; conditions: H2O2 50 μmol/L, dantrolene 1 μmol/L, 1 Hz
Method: as §1
Oxidation induced by hydrogen peroxide (H2O2) is expected to activate SR Ca^2+ leak through RyR2 at diastolic [Ca]i (Wagner et al., Circ Res. 2011; 108:555-65; Yan et al., Cardiovasc Res. 2008; 77:432-41). We used line-scan images to measure the effects of 50 μM/L H2O2 on Ca^2+ spark frequency (CaSpF) and SR Ca^2+ content (evaluated via rapid caffeine application) in intact cardiomyocytes after 1 Hz electric field stimulation (FIG. 25). […] Thus H2O2 may enhance diastolic RyR2 channel opening. […] So CaSpF normalized to SR Ca^2+ content, was significant increase by H2O2 treatment of myocytes (FIG. 25C).

effect on rate of HF647-DPc10 binding (τwash-in) (RyR2 [1]) | faster τwash-in of F-DPc10 (RyR2 [1]; after H2O2 treatment) [%] | reduction of F-CaM binding, myocytes pre-treated with H2O2 (RyR2 [2]; 50 μmol/L H2O2 not removed, F-CaM 20 nmol/L) [%] | reduction of F-CaM binding at the Z-line (RyR2 [2]; 50 μmol/L H2O2 removed by washing before F-CaM) [%] | effect on F-CaM binding at the Z-line (RyR2 [2]; 10 and 50 μmol/L H2O2 pretreatment, F-CaM 20 nmol/L) | reduction of RyR2 A-CaM binding (RyR2 [2]; subsaturating A-CaM, 50 μM H2O2) [%] | effect on maximal extent of quench (RyR2 [1]; dantrolene in H2O2-treated myocytes) | restoration of F-CaM binding in H2O2-treated myocytes (RyR2 [2]; dantrolene 1 μmol/L, AIP 1 μmol/L) | effect on CaM-RyR2 affinity under control conditions (RyR2 [2]; no H2O2) | Compound | occurrence of SCW vs. control (intact cardiac myocytes; pacing rate increased from 1 to 5 Hz) | Tau [Ca]i decline [3] [s] | Δ [Ca]i twitch (ΔF/F0) [3] | effect on CaM binding at the RyR2 and at the Z-line (RyR2 [2]; 20 nmol/L CaM, DPc10 pretreatment) | effect on CaM binding at the RyR2 (FRET) and at the Z-lines (total) (RyR2 [2]; 500 nmol/L AF568-34-CaM, DPc10-treated myocytes) | effect on H2O2-induced increase in frequency of SCW (intact cardiac myocytes; dantrolene added before H2O2)
significantly accelerated | 50 | 50 | 32 | reduced | ~50 |  |  |  | OO [H2O2, hydrogen peroxide] | significantly increased | 0.32 ± 0.01 | 2.56 ± 0.19 ΔF/F0 |  |  | 
 |  |  |  |  |  |  |  |  | GFCPDHKAAMVLFLDRVYGIEVQDFLLHLLEVGFLP [DPc10] |  |  |  | significantly reduced | reduced | 
restored; also recorded: reversed |  |  |  |  |  | reduced | partially restore | Neither AIP nor dantrolene alter | O=C1CN(/N=C/c2ccc(-c3ccc([N+](=O)[O-])cc3)o2)C(O)=N1 [dantrolene] |  | 0.31 ± 0.01 | 2.35 ± 0.16 ΔF/F0 |  |  | suppressed
